According to patent US5616615A, “Enaminone esters” (priority 1995, dated 1997):
Like-named read-outs stand apart in the source and are kept apart here.

Columns and labels:
[1] = Kase et al., Jap. J. Pharmacol. 1974; cited from earlier work
[2] = tested on: Maximal electroshock seizures; assay: MES maximal electroshock seizure test, mice ip; assay type: in vivo; set-up: TPE (time of peak effect), activity: unit not given here; settings: ip; for responders at 10 mg/kg / responders at 100 mg/kg: read-out: MES, animals protected/tested (converted); for responders at 300 mg/kg: read-out: MES, animals protected/tested
Protocol: Three tests were performed:
1. MES--Electroshock Seizure Test
(§1) Maximal electroshock seizures are elicited with a 60-cycle alternating current of 50 mA intensity (5-7 times that necessary to elicit minimal electroshock seizures) delivered via corneal electrodes for 0.2 seconds. A drop of 0.9% saline is instilled in the eye prior to application of the electrodes in order to […].

[3] = tested on: Subcutaneous Pentylenetetrazol seizure; assay: sc Met subcutaneous pentylenetetrazol (Metrazol) seizure test, mice; assay type: in vivo; settings: Mus musculus, sc; for responders at 10 mg/kg: read-out: scMet, animals protected/tested; for responders at 300 mg/kg / responders at 100 mg/kg: read-out: scMet, animals protected/tested (converted)
[4] = in vivo; settings: mouse, in vivo, ip
[5] = tested on: electroshock seizures; assay: MES maximal electroshock test, rats ip; assay type: in vivo
Description: as §1

[6] = tested on: Maximal electroshock seizures; assay: Phase VI oral MES test, rats; assay type: in vivo; settings: oral; for responders at 50 mg/kg: Rattus norvegicus, read-out: MES, animals protected/tested (converted)
Description: as §1
(§2) This oral screen is designated as phase VI.

[7] = in vivo; settings: rat, po; for Tox, animals toxic/tested: 50 mg/kg
Description: as §2

[8] = tested on: Corneal Kindled rats; assay: Corneal kindling; assay type: in vivo
Protocol: Corneal kindling studies were performed in our laboratories on 12 and 27 and the results are shown in Tables XI and XII and FIGS. 1A and 1B. Comparative data for the commercial products are included. Seizures evoked in electroshock-kindled rats provide a suitable model consistent with complex partial seizures evolving into generalized motor seizures in humans.
^a Rats kindled to Stage 5. Endpoint was reduction from Stage 5 to […]

[9] = tested on: Amygdala Kindled Seizures; assay: Suppression of amygdala kindled seizures; assay type: in vivo
Protocol: Compounds 12 and 27 were evaluated in our laboratory for suppression of amygdala kindled seizures.

[10] = tested on: bicuculline; assay: Phase V quantification against bicuculline; assay type: in vivo; settings: 12.5, 25, 50 and 100 mg/kg
Protocol: (§3) Both 12 and 27 were evaluated in Phase V of the ADD Program evaluation scheme. Phase V provides quantification against bicuculline, picrotoxin, pentylenetetrazol, and strychnine. This screen provides information on the mechanism of action of the anticonvulsant activity. Bicuculline, picrotoxin, and strychnine correspond to GABA inhibitory function, chloride channel inhibition and inhibition by glycine respectively.

[11] = tested on: picrotoxin; assay: Phase V quantification against picrotoxin; assay type: in vivo; settings: 12.5, 25, 50 and 100 mg/kg
Protocol: as §3

[12] = tested on: pentylenetetrazol; assay: Phase V quantification against pentylenetetrazol; assay type: in vivo; settings: 12.5, 25, 50 and 100 mg/kg
Protocol: as §3

[13] = tested on: strychnine; assay: Phase V quantification against strychnine; assay type: in vivo; settings: 12.5, 25, 50 and 100 mg/kg
Protocol: as §3

[14] = tested on: seizures; assay: Anticonvulsant evaluation (ASP phase I / overall); assay type: in vivo, mice; settings: for minimal effective dose: Mus musculus, ip, Phase I, read-out: ASP Classification
Summary of the method: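 Male Carworth Farms #1 mice; maximal electroshock seizures elicited by 60-cycle AC, 50 mA, 0.2 s via corneal electrodes after a drop of 0.9% saline in the eye. Animals observed for 30 minutes.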

[15] = Neurotoxicity, rats ip; settings: for Tox, animals exhibiting neurotoxicity/tested: 0.25-24 h
Protocol: (§4) The rotorod test is used to elevate neurotoxicity. The animal is placed on a 1 inch diameter knurled plastic rod rotating at 6 rpm. […] Neurologic toxicity is defined as the failure of the animal to remain on the rod for 1 minute and the results are expressed as the number of animals protected/the number of animals tested.
(§5) The toxicity evaluation for the commercial agents as previously indicated was based on the onset of ataxia.

[16] = in vivo; settings: rat, ip
Protocol: as §4, §5

## COc1cccc(C2=C(CN(C)CCc3ccccc3)C(=O)CC(C)(C)C2)c1 [MK 1-907, 5,5-dimethyl-3-(m-methoxy)phenyl-2-N-methyl-N-phenethylaminomethylcyclohex-2-ene-1-one]
[1]
  pharmacological actions: potent analgesics with morphine-like, as well as anticonvulsant and papaverine-like, actions

## COC(=O)C1C(=O)C=C(NCc2ccccc2)CC1C (stereo not drawn) [Compound 12, Methyl 4-(benzyl)amino-6-methyl-2-oxocyclohex-3-en-1-oate]
[2]; Mus musculus, 0.5 h, 30 min
  responders at 10 mg/kg: 66.7%
  responders at 300 mg/kg: 100%
[2]; Mus musculus, 4 h, 4 h
  responders at 10 mg/kg: 0%
  responders at 300 mg/kg: 0%
[2]; Mus musculus, Phase II, time of peak effect
  ED50: 64.7 mg/kg
[2]; Phase II
  TPE (time of peak effect), activity: 0.5
[3]; 0.5 h, 30 min
  responders at 10 mg/kg: 10%
  responders at 300 mg/kg: 0%
[3]; 4 h, 4 h
  responders at 10 mg/kg: 10%
  responders at 300 mg/kg: 0%
[4]
  TD50: > 500 mg/kg
  TPE (time of peak effect), toxicity: 1
  selectivity ratio: 7.73
[5]; 100 mg/kg, 0.25 h (Table X)
  MES, animals protected/tested: 4/4
[5]; 100 mg/kg, 0.50 h (Table X)
  MES, animals protected/tested: 4/4
[5]; 100 mg/kg, 1.00 h (Table X)
  MES, animals protected/tested: 4/4
[5]; 100 mg/kg, 2.00 h (Table X)
  MES, animals protected/tested: 4/4
[5]; 100 mg/kg, 4.00 h (Table X)
  MES, animals protected/tested: 3/4
[6]; Phase VI, rat
  ED50: 26.8 mg/kg
[6]; 0.5 h, 0.50 h
  responders at 50 mg/kg: 100%
[6]; 0.25 h
  responders at 50 mg/kg: 50%
[6]; 1.00 h
  responders at 50 mg/kg: 75%
[6]; 2.00 h
  responders at 50 mg/kg: 50%
[6]; 4.00 h
  responders at 50 mg/kg: 50%
[7]
  TD50: > 500 mg/kg
  selectivity ratio: 18.7
  Tox, animals toxic/tested: 0/4
[8]; 50 mg/kg
  % Reduction: 17%
[8]; 60 mg/kg
  % Reduction: 23%
[8]; 75 mg/kg
  % Reduction: 75%
[8]; Rattus norvegicus, po, 0.5 h, read-out: ED50 (reduction from Stage 5 to Stage 4)
  ED50: 41.9 mg/kg
[9]; 500 mg/kg
  Afterdischarge Amygdala: Duration: 73.9 s
  Afterdischarge Cortex: Duration: 78.9 s
  Afterdischarge Cortex: Latency: 2.8 s
  Behavioral Seizure: Duration: 79.5 s
  Behavioral Seizure: Latency: 2.1 s
  Forelimb Clonus: Duration: 44.2 s
  Forelimb Clonus: Latency: 9.3 s
  Seizure Stage: 5.0
[9]; in vivo
  suppression of amygdala kindled seizures: no significant activity
[10]
  protection against bicuculline: uniformly inactive
[11]
  protection against picrotoxin: uniformly inactive
[12]
  protection against pentylenetetrazol: uniformly inactive
[13]
  protection against strychnine: uniformly inactive
[14]
  minimal effective dose: < 100 mg/kg
[14]; mouse, in vivo
  anticonvulsant activity: highly active
[15]; 100 mg/kg, 0.25 h (Table X)
  Tox, animals toxic/tested: 0/4
[15]; 100 mg/kg, 0.50 h (Table X)
  Tox, animals toxic/tested: 0/4
[15]; 100 mg/kg, 1.00 h (Table X)
  Tox, animals toxic/tested: 0/4
[15]; 100 mg/kg, 2.00 h (Table X)
  Tox, animals toxic/tested: 0/4
[15]; 100 mg/kg, 4.00 h (Table X)
  Tox, animals toxic/tested: 0/4
[15]; ip, 100 mg/kg, four hour evaluation
  toxicity: No toxicity was noted

## CC1(C)CC(=O)C(CN2CCCCC2)=C(Nc2ccccc2Cl)C1 [MK 1-203, 5,5-dimethyl-3-(o-chloro)phenylamino-2-(N-piperidinylmethyl)cyclohex-2-ene-1-one]
[1]
  pharmacological actions: potent analgesics with morphine-like, as well as anticonvulsant and papaverine-like, actions

## COC(=O)C1C(=O)C=C(Nc2ccc(C(F)(F)F)cc2)CC1C (stereo not drawn) [Compound 115]
[2]; Mus musculus, 0.5 h, 30 min
  responders at 100 mg/kg: 100%
  responders at 300 mg/kg: 100%
[2]; Mus musculus, 4 h, 4 h
  responders at 100 mg/kg: 33.3%
  responders at 300 mg/kg: 100%
[3]; 0.5 h, 30 min
  responders at 100 mg/kg: 0%
  responders at 300 mg/kg: 40%
[3]; 4 h, 4 h
  responders at 100 mg/kg: 0%
  responders at 300 mg/kg: 0%
[5]; 1.0 mg/kg, 0.50 h
  MES, animals protected/tested: 0/8
[5]; 2.0 mg/kg, 0.50 h (Table VII)
  MES, animals protected/tested: 1/4
[5]; 2.0 mg/kg, 0.50 h (Table VIII)
  MES, animals protected/tested: 3/8
[5]; 2.0 mg/kg, 1.00 h
  MES, animals protected/tested: 1/4
[5]; 3.0 mg/kg, 0.50 h
  MES, animals protected/tested: 3/8
[5]; 3.5 mg/kg, 0.50 h
  MES, animals protected/tested: 4/8
[5]; 4.0 mg/kg, 0.25 h
  MES, animals protected/tested: 2/4
[5]; 4.0 mg/kg, 0.50 h (Table VII)
  MES, animals protected/tested: 3/4
[5]; 4.0 mg/kg, 0.50 h (Table VIII)
  MES, animals protected/tested: 7/8
[5]; 4.0 mg/kg, 1.00 h
  MES, animals protected/tested: 3/4
[5]; 4.0 mg/kg, 2.00 h
  MES, animals protected/tested: 2/4
[5]; Rattus norvegicus, 0.5 h, ip, 0.50 h
  ED50: 2.95 mg/kg
[6]; 0.5 h, 0.50 h
  responders at 50 mg/kg: 100%
[6]; 0.25 h
  responders at 50 mg/kg: 75%
[6]; 1.00 h
  responders at 50 mg/kg: 100%
[6]; 2.00 h
  responders at 50 mg/kg: 100%
[6]; 4.00 h
  responders at 50 mg/kg: 100%
[7]
  Tox, animals toxic/tested: 0/4
[14]
  minimal effective dose: < 100 mg/kg
[16]
  TD50: > 64 mg/kg
  selectivity ratio: > 21.7
[15]; 8 mg/kg
  Tox, animals exhibiting neurotoxicity/tested: 0/2
[15]; 16 mg/kg
  Tox, animals exhibiting neurotoxicity/tested: 0/2
[15]; 32 mg/kg
  Tox, animals exhibiting neurotoxicity/tested: 0/2
[15]; 64 mg/kg
  Tox, animals exhibiting neurotoxicity/tested: 0.2
